In patent publication US6573045B1, “Methods and kits for discovery of RNA-binding compounds” (Ribotargets, Ltd., priority 1998, dated 2003):
Like-named read-outs stand apart in the source and are kept apart here.

Key:
TAR RNA = assay: Competition binding assay, FAM-labelled TAR RNA Duplex-1 / TAMRA-labelled ADP-1; design: species or system HIV; details: for Ki: 2 nM FAM-labelled TAR RNA, 18 nM unlabelled TAR RNA; for binding to TAR RNA (competitor efficiency): FIG. 8 and FIG. 9
Experimental: This experiment was performed with a starting condition in which there is an equimolar ratio of TAMRA-labelled ADP-1 peptide and TAR RNA (both labelled and unlabelled). A pre-mix is prepared on ice containing 2 nM FAM-labelled TAR RNA, 18 nM unlabelled TAR RNA and 20 nM TAMRA-labelled ADP-1 peptide diluted in TK buffer to provide the final concentrations (as detailed above) in each 200 μl reaction volume. The ADP-1 peptide was prepared as a 2 fold dilution series in TK buffer at 10 times the assay concentration and diluted 10 fold into the final assay volume. The competition assays were equilibrated for 15 minutes at room temperature and the fluorescence-emission spectra at 535 nm determined in a Wallac Victor™ 1420 following excitation at 485 nm.
Under these conditions, the Ki for the unlabelled ADP-1 competitor was measured as 100 nM.
TAMRA-labelled ADP-1 peptide and increasing concentrations of C5 cyclic peptide (SEQ ID 9). A pre-mix is prepared on ice containing the FAM-labelled TAR RNA, unlabelled TAR RNA and the TAMRA-labelled ADP-1 peptide diluted in TK buffer to provide the final concentrations (as detailed above) in each 200 μl reaction volume. The C5 cyclic peptide was prepared as a 2 fold dilution series in TK buffer at 10 times the assay concentration and diluted 10 fold in to the final assay volume.

TAR bulge RNA = assay: Dabcyl-peptide binding to Fam-labelled RNA (quenching), TAR; design: species or system HIV; details: 110 mM KCl
Description: (§1) A representative subset comprising 40 peptide sequences from the total of 243 possible sequences was synthesised and is shown in Table 6. The peptides from the library are: No. 3 (SEQ ID NO:11), 4 (SEQ ID NO:12), 5 (SEQ ID NO:13), 6 (SEQ ID NO:14), 7 (SEQ ID NO:15), 8 (SEQ ID NO:16), 9 (SEQ ID NO:17), 10 (SEQ ID NO:18), 11 (SEQ ID NO:19), 12 (SEQ ID NO:20), 13 (SEQ ID NO:21), 14 (SEQ ID NO:22), 15 (SEQ ID NO:23), 16 (SEQ ID NO:24), 17 (SEQ ID NO:25), 18 (SEQ ID NO:26), 19 (SEQ ID NO:27), 20 (SEQ ID NO:28), 21 (SEQ ID NO:29), 22 (SEQ ID NO:30), 23 (SEQ ID NO:31), 24 (SEQ ID NO:32), 25 (SEQ ID NO:33), 26 (SEQ ID NO:34), 27 (SEQ ID NO:35), 28 (SEQ ID NO:36), 29 (SEQ ID NO:37), 30 (SEQ ID NO:38), 31 (SEQ ID NO:39), 32 (SEQ ID NO:40), 33 (SEQ ID NO:41), 34 (SEQ ID NO:42), 35 (SEQ ID NO:43), 36 (SEQ ID NO:44), 37 (SEQ ID NO:45), 38 (SEQ ID NO:46), 39 (SEQ ID NO:47), 40 (SEQ ID NO:48), 41 (SEQ ID NO:49), 42 (SEQ ID NO:50). These peptides were assayed for their ability to bind to range of RNA sequences carrying fluorescein attached to the 5′ end, as shown in FIG. 25.
(§2) FIG. 26. presents binding data for the peptide sequence 5 (KKQKR) (SEQ ID NO: 13) and the 4 RNA sequences. Reactions (100 μl) containing Fam-labelled RNA (10 nM) were mixed with increasing concentrations of Dabcyl-labelled ADP-1 peptide (up to 250 nM) in 50 mM Tris/Cl, pH7.4, 20 mM or 110 mM KCl (as indicated), 5 μg/ml BSA, 0.01% Triton X-100, 1% DMSO. Fluorescence (excitation 490 nm/emission at 535 nm) was determined using a Victor plate reader.
(§3) Dissociation constants were determined by fitting a binding isotherm (1-site-binding) to the data using the equation:
(§4) Y=((Fmax−Fmin)−((Fmax−Fmin)*X/(Kd+X)))+Fmin
(§5) where Fmax is fluorescence in the absence of quencher, Fmin is fluorescence at saturation, and X is peptide concentration.

ss-19mer RNA = assay: Dabcyl-peptide binding to Fam-labelled RNA (quenching), single stranded RNA; details: for Kd: ss-19mer, 110 mM KCl
Description: as §1, §2, §3, §4, §5

RRE RNA = assay: Dabcyl-peptide binding to Fam-labelled RNA (quenching), RRE; design: species or system HIV; details: for Kd: RRE, 110 mM KCl
Description: as §1, §2, §3, §4, §5

GTPase-LHL RNA = assay: Dabcyl-peptide binding to Fam-labelled RNA (quenching), GTPase LHL; details: for Kd: GTPase-LHL, 110 mM KCl; for binding to the GTPase RNA: FIG. 27
Description: as §1, §2, §3, §4, §5

FAM-labelled TAR RNA = assay: Quenching of FAM-labelled TAR RNA by unlabelled ADP-1 peptide; assay type: binding, HIV; details: 2 nM FAM-TAR
Experimental: The FAM-TAR was diluted from a 100 nM stock solution in TK buffer (50 mM Tris-HCl pH7.6, 20 mM KCl) to obtain a final assay concentration of 2 nM in 200 μl reaction volume. The unlabelled ADP-1 peptide was prepared in TK buffer as a 2 fold dilution series at 10 times the assay concentration and diluted 10 fold into the final assay volume (200 μl). After complex formation was performed for 20 minutes at room temperature the fluorescence-emission at 535 nm was determined in a Wallac Victor™ 1420 following excitation at 485 nm.
The level of fluorescence obtained in the absence of the unlabelled ADP-1 peptide is normalised to 100% and the levels of fluorescence obtained in the presence of the unlabelled ADP-1 peptide are expressed as a percentage of this value.

TAR RNA Duplex-2 = assay: Competition binding assay, FAM-labelled TAR RNA Duplex-2 / TAMRA-labelled ADP-1; design: species or system HIV; details: saturating concentrations of ADP-1 competitor
Description: In order to obtain efficient fluorescent resonance energy transfer and/or quenching it is important that the fluorescent groups are placed on the reporter and the target RNA to permit close contact between the donor and acceptors after complex formation. In this experiment the FAM group on the TAR RNA target (Duplex 2) has been displaced by the addition of a base pair. This alteration to the target RNA structure has the effect of increasing the distance of the FAM group from the binding site on the TAR RNA duplex by 2 Å more than the equivalent group on the TAR RNA Duplex 1 target. In addition, insertion of the base pair rotates the FAM group by 18° compared to the equivalent group in the Duplex-1 TAR RNA target.
Because Duplex-2 has a sub-optimal spacing of the FAM-label on TAR RNA it gives rise to a poor signal in the assay compared to Duplex-1, with a less than 50% rise in fluorescence in the presence of saturating concentrations of ADP-1 competitor.

[1] = target: FAM-labelled TAR RNA duplex 1; assay: Quenching of FAM-labelled TAR RNA by TAMRA-labelled ADP-1 (complex formation); assay type: binding, HIV
Experimental: In this experiment, 2 nM FAM-labelled TAR RNA was mixed with increasing concentrations of TAMRA-labelled ADP-1 peptide. The FAM-TAR was diluted from a 100 nM stock solution in TK buffer (50 mM Tris-HCl pH 7.6, 20 mM KCl) to obtain a final assay concentration of 2 nM in 200 μl reaction volume. The TAMRA-labelled ADP-1 peptide was prepared in TK buffer as a 2-fold dilution series at 10 times the assay concentration and diluted 10 fold in to the final assay volume (200 μl). Complex formation was performed for 20 minutes at room temperature and the fluorescence-emission spectra at 535 nm determined in a Wallac Victor™ 1420 following excitation at 485 nm.
The level of fluorescence obtained in the absence of TAMRA-labelled ADP-1 peptide gave a fluorescence intensity of 2100 units. As the ADP-1 concentration is increased there is a progressive loss of fluorescence intensity detected, until at concentrations of ADP-1 greater than 100 nM there is over 80% loss of fluorescence intensity and there is no further quenching detected.

[2] = 20 nM TAMRA-labelled ADP-1, 0-100 μM cyclic peptide, average ± SD of three, read-out: Ki

## cyclo(KRRFR) [C5/4]
TAR RNA; [2]
  Ki: 8280 ± 3010 nM
TAR RNA
  binding to TAR RNA (competitor efficiency): most efficient competitors

## library peptide Dabcyl-Thr-Arg-Lys-X-X-X-X-X-Arg-Lys-Ser-Gly with X5 = KKKKK
TAR bulge RNA
  Kd: 24 nM
ss-19mer RNA
  Kd: > 500 nM
RRE RNA
  Kd: 12 nM
GTPase-LHL RNA
  Kd: 26 nM

## cyclo(KRRFR) [C5/5]
TAR RNA; [2]
  Ki: 17100 ± 13000 nM

## c(KRRFR) [C5] (cyclo(KRRFR); also: D-residues marked by underlining, not recoverable) [cyclic pentapeptide]
TAR RNA; [2]
  Ki: 1870 ± 420 nM
TAR RNA
  binding to TAR RNA (competitor efficiency): most efficient competitors

## library peptide Dabcyl-Thr-Arg-Lys-X-X-X-X-X-Arg-Lys-Ser-Gly with X5 = RRRRR
ss-19mer RNA
  Kd: 194 nM
RRE RNA
  Kd: 30 nM
GTPase-LHL RNA
  binding to the GTPase RNA: Efficient binding
  Kd: 16 nM

## library peptide Dabcyl-Thr-Arg-Lys-X-X-X-X-X-Arg-Lys-Ser-Gly with X5 = QQQRR
TAR bulge RNA
  Kd: > 500 nM

## library peptide Dabcyl-Thr-Arg-Lys-X-X-X-X-X-Arg-Lys-Ser-Gly with X5 = KKQKR
TAR bulge RNA
  Kd: 56 nM
ss-19mer RNA; single stranded RNA, FIG. 26
  binding of the peptide, measured by quenching of the fluorescenated RNA: no significant binding
ss-19mer RNA
  Kd: > 500 nM
RRE RNA; RRE sequence compared with the other RNAs, FIG. 26
  binding of the peptide, measured by quenching of the fluorescenated RNA: highest affinity binding
RRE RNA
  Kd: 15 nM
GTPase-LHL RNA
  Kd: 74 nM

## ADP-1: unlabelled peptide derived from HIV Tat, residues 37 to 72 (SEQ ID NO: 7) (FTTKALGISYGRKKRRQRRRPPQGSGTHQVSLSKQ; Human immunodeficiency virus)
TAR RNA; 20 nM TAMRA-labelled ADP-1, read-out: Ki for the unlabelled ADP-1 competitor
  Ki: 100 nM
FAM-labelled TAR RNA
  quenching of the FAM group present on TAR RNA: ≤ 20%
TAR RNA Duplex-2
  rise in fluorescence: less than 50%

## library peptide Dabcyl-Thr-Arg-Lys-X-X-X-X-X-Arg-Lys-Ser-Gly with X5 = QQQKR
TAR bulge RNA
  Kd: > 500 nM

## cyclo(KRRFR) [C5/3]
TAR RNA; [2]
  Ki: 15200 ± 3790 nM

## library peptide Dabcyl-Thr-Arg-Lys-X-X-X-X-X-Arg-Lys-Ser-Gly with X5 = KQKRR
TAR bulge RNA
  Kd: 11 nM

## TAMRA-Phe-Thr-Thr-Lys-Ala-Leu-Gly-Ile-Ser-Tyr-Gly-Arg-Lys-Lys-Arg-Arg-G ln-Arg-Arg-Arg-Pro-Pro-Gln-Gly-Ser-Gln-Thr-His-Gln-Val-Ser-Leu-Ser-Lys-Gln [TAMRA-labelled ADP-1]
[1]; 2 nM FAM-labelled TAR RNA, TK buffer, read-out: binding constant (Kd) of TAMRA-labelled ADP-1 for FAM-labelled TAR RNA duplex 1
  Kd: ~25 nM
[1]; concentrations of ADP-1 greater than 100 nM
  loss of fluorescence intensity: over 80%

## library peptide Dabcyl-Thr-Arg-Lys-X-X-X-X-X-Arg-Lys-Ser-Gly with X5 = RQQQR
TAR bulge RNA
  Kd: > 500 nM

## library peptide Dabcyl-Thr-Arg-Lys-X-X-X-X-X-Arg-Lys-Ser-Gly with X5 = KKRQR
ss-19mer RNA
  Kd: > 500 nM
RRE RNA
  Kd: 24 nM
GTPase-LHL RNA
  Kd: 43 nM

## library peptide Dabcyl-Thr-Arg-Lys-X-X-X-X-X-Arg-Lys-Ser-Gly with X5 = KQRQR
TAR bulge RNA
  Kd: 9 nM

## library peptide Dabcyl-Thr-Arg-Lys-X-X-X-X-X-Arg-Lys-Ser-Gly with X5 = QQQQQ
ss-19mer RNA
  Kd: > 500 nM
GTPase-LHL RNA
  binding to the GTPase RNA: no significant binding
  Kd: > 500 nM

## library peptide Dabcyl-Thr-Arg-Lys-X-X-X-X-X-Arg-Lys-Ser-Gly with X5 = KKQRR
ss-19mer RNA
  Kd: > 500 nM
RRE RNA
  Kd: 20 nM
GTPase-LHL RNA
  Kd: 55 nM

## library peptide Dabcyl-Thr-Arg-Lys-X-X-X-X-X-Arg-Lys-Ser-Gly with X5 = KKKQR
TAR bulge RNA
  Kd: 27 nM
ss-19mer RNA
  Kd: > 500 nM
RRE RNA
  Kd: 30 nM
GTPase-LHL RNA
  Kd: 76 nM

## cyclo(KRRFR) [C5/1]
TAR RNA; [2]
  Ki: 15300 ± 2500 nM

## library peptide Dabcyl-Thr-Arg-Lys-X-X-X-X-X-Arg-Lys-Ser-Gly with X5 = KQQQR
TAR bulge RNA
  Kd: > 500 nM

## library peptide Dabcyl-Thr-Arg-Lys-X-X-X-X-X-Arg-Lys-Ser-Gly with X5 = KQKKR
TAR bulge RNA
  Kd: 16 nM

## cyclo(KRRFR) [C5/2]
TAR RNA; [2]
  Ki: 12700 ± 6580 nM
